The target of experiment [1] is T1, wild-type CysLT1R (Homo sapiens, UniProt Q9Y271).
T1 construct: expressed in transfected cells; host or cells: HEK293 (ATCC CRL-1573), transient transfection with Lipofectamine 3000
T1 sequence (Q9Y271 1-337): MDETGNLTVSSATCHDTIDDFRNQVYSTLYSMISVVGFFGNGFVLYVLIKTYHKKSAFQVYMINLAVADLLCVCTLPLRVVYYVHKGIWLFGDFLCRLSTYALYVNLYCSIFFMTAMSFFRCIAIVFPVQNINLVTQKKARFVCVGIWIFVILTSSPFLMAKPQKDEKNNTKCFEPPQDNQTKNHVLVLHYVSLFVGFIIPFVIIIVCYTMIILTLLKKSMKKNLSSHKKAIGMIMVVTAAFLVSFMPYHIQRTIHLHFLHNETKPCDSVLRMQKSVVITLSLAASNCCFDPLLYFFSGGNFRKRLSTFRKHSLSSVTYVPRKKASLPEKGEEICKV
Description: IP1 production assay, antagonist mode, co-stimulation with EC80 LTD4. It counts as cell-based. The settings on record: for inhibition at 30 µM: HEK293, compound 30 µM, LTD4 at EC80, HEK293, wild-type CysLT1R, read-out: inhibition of LTD4-induced IP1 production, single-concentration screen; for Emax: HEK293, read-out: CysLT1R (LTD4) % Max Inhibition ± SEM; for extent of inhibition of LTD4-mediated response at CysLT1R (in words): antagonist mode, 1.5 to 100 µM. On the procedure:
(§1) For this assay, we used the Cisbio IP-One kit as previously described. […] At 48 h post-transfection, the media was removed and the cells were washed with fresh Hank’s Balanced Salt Solution (HBSS). […] After compound stimulation, the cells were incubated for 1 h at 37 °C and stimulated with IP1-D2 and Ab-Crypt reagents in Lysis Buffer. The cells were then incubated at room temperature for an additional hour. […] Normalized data were plotted using either the three-parameter or four-parameter EC50/IC50 fits of GraphPad Prism 8 (San Diego). […] Data represent the means ± SEM of at least three independent experiments performed in quadruplicate.

For experiment [2], the target named is T2, wild-type CysLT2R (Homo sapiens, UniProt Q9NS75).
T2 construct: expressed in transfected cells; host or cells: HEK293 (ATCC CRL-1573), transient transfection with Lipofectamine 3000
T2 sequence (Q9NS75 1-346): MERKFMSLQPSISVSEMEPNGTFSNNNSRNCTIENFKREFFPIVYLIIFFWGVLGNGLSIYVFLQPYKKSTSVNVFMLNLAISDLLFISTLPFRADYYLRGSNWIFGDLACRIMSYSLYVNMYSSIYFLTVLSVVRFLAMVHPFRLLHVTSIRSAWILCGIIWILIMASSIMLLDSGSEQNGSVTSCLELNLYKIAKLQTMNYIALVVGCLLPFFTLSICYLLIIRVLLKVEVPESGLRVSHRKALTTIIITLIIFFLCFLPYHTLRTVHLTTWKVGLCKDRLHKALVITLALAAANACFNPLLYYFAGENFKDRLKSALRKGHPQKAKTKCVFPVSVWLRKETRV
The description is as above. It counts as cell-based. The settings on record: for inhibition at 30 µM: HEK293, compound 30 µM, LTD4 at EC80, HEK293, wild-type CysLT2R, read-out: inhibition of LTD4-induced IP1 production, single-concentration screen; for Emax: HEK293, read-out: CysLT2R (LTD4) % Max Inhibition ± SEM. On the procedure:
as §1

Where only a bound is given, the exact number is not on record here.

The source of these data is paper PMC7761830, “Structure-Based Virtual Screening of Ultra-Large Library Yields Potent Antagonists for a Lipid GPCR” (Biomolecules, 2020).

As to `NC(=O)Nc1ccc(C(=O)NCc2c(C(=O)O)oc3ccccc23)cc1` [BRI-12447], the remaining activity at 30 µM worked out at 85.5% in experiment [1] and 52.9% in experiment [2].

For `Cc1ccc(C(=O)Nc2ccc(C(=O)NCC(=O)O)cc2)c(O)c1` [BRI-12428], the remaining activity at 30 µM was found to be 90.3% in experiment [1] and 59.5% in experiment [2].

With `C=C1c2ccccc2C(=O)N1CCC(=O)Nc1cc(C(N)=O)cc(C(N)=O)c1` [BRI-12353], the remaining activity at 30 µM in experiment [1] was 83.4%; in experiment [2], 96.8%.

As for `CN(CC(=O)O)C(=O)c1ccc(-c2ccc(NC(=O)C(C)(C)C)nc2)o1` [BRI-12450], in experiment [1], the remaining activity at 30 µM was 57.6%, the inhibition at 30 µM was not below 50% and the Emax turned out to be 44 ± 25%. For the same compound, in experiment [2], the remaining activity at 30 µM was 41.1%, the inhibition at 30 µM was not below 50% and the Emax is 24 ± 8%.

In the case of `CC(C)c1c(C(=O)Nc2ccc3[nH]c(=O)[nH]c3c2)cnn1-c1ccccn1` [BRI-12339], the results for the remaining activity at 30 µM in experiment [1] and in experiment [2] were 82% and 99.8%, respectively.

Turning to `Cc1cccc(-n2nnc(C(=O)Nc3ccc4c(c3)NC(=O)CO4)c2C)c1` [BRI-12333], the values for the remaining activity at 30 µM in experiment [1] and in experiment [2] were 77.5% and 70.5%, respectively.

With `O=C(Cn1ccc(=O)[nH]c1=O)Nc1cccc(C=Cc2ccccn2)c1` [BRI-12354], the figures for the remaining activity at 30 µM in experiment [1] and in experiment [2] were 72.7% and 92.8%, respectively.

Consider `O=C(O)CNC(=O)c1ccc(NC(=O)c2cc3ccccn3c2)cc1` [BRI-12317], for which the values for the remaining activity at 30 µM in experiment [1] and in experiment [2] were 86.4% and 89.2%, respectively.

On to `C[C@@H]1C[C@H](C(=O)Nc2cccc(NC(=O)c3cccs3)c2)O[C@H]1C(=O)O` [BRI-12306], for which the figures for the remaining activity at 30 µM in experiment [1] and in experiment [2] were 81.2% and 112%, respectively.

For the compound `O=C(Nc1ccccc1C(=O)N1CCn2ncnc2C1)c1ccc(Cl)cc1` [BRI-12419], the remaining activity at 30 µM was 85.7% in experiment [1] and 48.1% in experiment [2].

As for `CCC(=O)Nc1ccc(S(=O)(=O)NC(C)(C)CC(=O)O)cc1` [BRI-12472], the remaining activity at 30 µM in experiment [1] was found to be 95.8%; in experiment [2], 66.4%.

With `O=C(O)CCNC(=O)c1nccnc1C(=O)Nc1ccc(Cl)cc1` [BRI-12465], the figures for the remaining activity at 30 µM in experiment [1] and in experiment [2] were 84.7% and 59.9%, respectively.

With `NS(=O)(=O)c1cncc(-c2noc(CN(Cc3ccccc3)c3ccccc3)n2)c1` [BRI-12410], in experiment [1], the affinity corresponds to a Ki of 590 ± 120 nM, the remaining activity at 30 µM stood at 45.2%, the inhibition at 30 µM is not below 50% and the Emax was found to be 64 ± 7%. Further, the “extent of inhibition of LTD4-mediated response at CysLT1R (in words)” value in experiment [1] is on record as “partial antagonism”. Also, in experiment [2], the remaining activity at 30 µM was found to be 46.7%, the inhibition at 30 µM is not below 50% and the Emax came to 18 ± 9%.

Turning to `Cc1cc(O)c(C(=O)O)cc1S(=O)(=O)Nc1ccc(N2CCCC2)c(F)c1` [BRI-12334], in experiment [1], the remaining activity at 30 µM worked out at 47.3%, the inhibition at 30 µM is not below 50% and the Emax was found to be 46 ± 15%. In experiment [2], the remaining activity at 30 µM stood at 57.2%, the inhibition at 30 µM was not below 50% and the Emax was 21 ± 8%.

Regarding `Cc1cccn2cc(-c3cccc(NC(=O)Cn4c(=O)[nH]c(=O)c5ccccc54)c3)nc12` [BRI-12438], the figures for the remaining activity at 30 µM in experiment [1] and in experiment [2] were 62.6% and 88.7%, respectively.

Regarding `O=C(O)CCN(CC1CCCO1)C(=O)c1cc(-c2ccccc2Cl)[nH]n1` (stereo not shown) [BRI-12320], the results for the remaining activity at 30 µM in experiment [1] and in experiment [2] were 81.4% and 90.5%, respectively.

For the compound `Cc1onc(N)c1S(=O)(=O)Nc1ccc(N2CCCC2)cc1C(=O)O` [BRI-12425], the remaining activity at 30 µM in experiment [1] came out at 84.2%; in experiment [2], 79.8%.

`CC1CC(C(=O)O)CN(C(=O)Nc2cccc(NC(=O)c3ccccc3)c2)C1` (stereo not shown) [BRI-12308]: the values for the remaining activity at 30 µM in experiment [1] and in experiment [2] were 95.6% and 101%, respectively.

Take `Cn1nc(C2CC2)nc1CC(=O)Nc1ccc(N2CCNC2=O)cc1` [BRI-12402]: the remaining activity at 30 µM in experiment [1] was 66.8%. Further, in experiment [2], the remaining activity at 30 µM was 40.2%, the inhibition at 30 µM was not below 50% and the Emax was 8 ± 4%.

Turning to `O=C(c1cc(C(F)(F)F)n[nH]1)N1CCC2(C1)CN(C(=O)[C@@H]1C[C@H]1c1cccnc1)C2` [BRI-12459], the remaining activity at 30 µM in experiment [1] is 77.6%; in experiment [2], 69.1%.

For the compound `NC(=O)NC(=O)COC(=O)c1ccccc1Nc1cccc(C(F)(F)F)c1` [BRI-12349], the remaining activity at 30 µM stood at 80% in experiment [1] and 70.5% in experiment [2].

Turning to `O=C(O)C1CN(C(=O)Nc2cc(Br)ccn2)CCO1` (stereo not shown) [BRI-12436], the results for the remaining activity at 30 µM in experiment [1] and in experiment [2] were 93.9% and 67.5%, respectively.

For `O=C(CC1SC(c2cc3ccccc3oc2=O)=NC1=O)Nc1ccc(F)cc1` (stereo not shown) [BRI-12345], the figures for the remaining activity at 30 µM in experiment [1] and in experiment [2] were 75.3% and 101%, respectively.

Regarding `NC(=O)CNC(=O)c1ccc(CNC(=O)c2cc3ccc(F)cc3[nH]c2=O)cc1` [BRI-12453], the remaining activity at 30 µM in experiment [1] is 88.3%. In experiment [2], the remaining activity at 30 µM worked out at 49.5%, the inhibition at 30 µM is not below 50% and the Emax was 3 ± 7%.

On to `O=C(O)c1cccc(NC(=O)c2ccc(N3CCNC3=O)cc2)c1` [BRI-12457], for which the figures for the remaining activity at 30 µM in experiment [1] and in experiment [2] were 83.8% and 67.4%, respectively.

As to `Cc1sc(NC(=O)C(C)(CC(=O)O)C2CCCCC2)c(C(N)=O)c1-c1ccccc1` (stereo not shown) [BRI-12474], the remaining activity at 30 µM in experiment [1] turned out to be 118%; in experiment [2], 106%.

Turning to `O=C1COc2cc(C(=O)N3CCC(c4cc5ccccc5[nH]4)CC3)c(Cl)cc2N1` [BRI-12416], the remaining activity at 30 µM in experiment [1] turned out to be 70.8%; in experiment [2], 80.4%.

As to `Cc1cccc(COc2ccc(CNS(=O)(=O)N(C)CCC(=O)O)cc2)c1` [BRI-12411], in experiment [1], the Ki (usually a measure of affinity in units of concentration, obtained from inhibition or displacement) amounted to 720 ± 160 nM; the remaining activity at 30 µM was found to be 55.9%; the inhibition at 30 µM is not below 50%; the Emax was 66 ± 18%. Further, the “extent of inhibition of LTD4-mediated response at CysLT1R (in words)” value in experiment [1] is on record as “partial antagonism”. Further, in experiment [2], the remaining activity at 30 µM turned out to be 57.3%.

`Cc1cccc(-c2nnc(SCc3ccc(C(N)=O)cc3)n2CC(=O)O)c1` [BRI-12350]: the remaining activity at 30 µM in experiment [1] was determined as 68.4%; in experiment [2] it was 79.8%.

For `NC(=O)c1ccc(NC(=O)CCCCC2SCC3NC(=O)NC32)cc1` (stereo not shown) [BRI-12301], the remaining activity at 30 µM in experiment [1] is 91.5%; in experiment [2] it was 88.1%.

As to `CC(O)CN(C(=O)Nc1ccc2c(c1)CCCC2=O)C1CC1` (stereo not shown) [BRI-12423], the remaining activity at 30 µM stood at 89.7% in experiment [1] and 68.2% in experiment [2].

Consider `O=C(O)CC1CN(S(=O)(=O)C=Cc2ccc(Cl)cc2)c2ccccc21` (stereo not shown) [BRI-12449], for which the remaining activity at 30 µM in experiment [1] was 67.5%; in experiment [2] it was 67.8%.

`Cc1ccnc(-c2ccc(NC(=O)COC(C)C)cc2)n1` [BRI-12422]: the results for the remaining activity at 30 µM in experiment [1] and in experiment [2] were 79.8% and 76.5%, respectively.

In the case of `O=C1CCc2cc(NC(=O)C(=O)NCCc3ccc4c(c3)OCO4)ccc2N1` [BRI-12338], the remaining activity at 30 µM in experiment [1] was found to be 66.4%; in experiment [2], 95.5%.

In the case of `O=C(O)CCC1CCCCN1C(=O)C1CCc2ncncc2C1` (stereo not shown) [BRI-12302], the remaining activity at 30 µM in experiment [1] was 87.4%; in experiment [2], 70%.

As to `CN(CCCc1cc(-c2ccc(F)cc2)n[nH]1)S(=O)(=O)c1[nH]ncc1C(=O)O` [BRI-12431], the remaining activity at 30 µM worked out at 90.9% in experiment [1] and 63.2% in experiment [2].

Regarding `O=C(O)CNC(=O)c1ccc(NC(=O)C2Cc3cc(F)ccc3O2)cc1` (stereo not shown) [BRI-12329], the remaining activity at 30 µM in experiment [1] amounted to 88.8%; in experiment [2] it was 87.8%.

As for `O=C(O)CNC(=O)c1ccc(NC(=O)CCn2cccc2)cc1` [BRI-12442], the remaining activity at 30 µM came out at 74.5% in experiment [1] and 51.7% in experiment [2].

Turning to `O=C(O)[C@@H]1CC[C@H](C(=O)Nc2cccc(-c3nc4ccccc4[nH]3)c2)C1` [BRI-12309], the remaining activity at 30 µM in experiment [1] was 87.8%; in experiment [2], 87.4%.
